The values that follow come from patent US20030082722A1, “Method for amplifying expression from a cell specific promoter” (priority 2001, published 2003).

Where two headings read alike, the source gives them in different places.

The test system of test [1] is MDA-MB-231. Briefly: IC50 of chemotherapeutic agents and Ad/gTRAIL, parental cells. The test is classed as cell-based, human. As to the method:
Cell Lines and Reagents. Human breast cancer cell lines MCF7, MDA-MB-231, MDA-MB-453, and MDA-MB-468 were grown in RPMI 1640 medium supplemented with 10% heat-inactivated fetal bovine serum, and antibiotics, and glutamine. Immortalized nontransformed breast epithelial cell lines MCF10A and MCF10F and normal human mammary epithelial cells (NHMEC) were purchased from Clonetics (San Diego, Calif.). Primary normal human mammary epithelial cells (PNHMEC) isolated from normal breast tissue (Stampfer and Yaswen, 1994) were provided by Dr. Yinhua Yu (The University of Texas M. D. Anderson Cancer Center). Doxorubicin-resistant MDA-MB-231 cells were obtained through the stepwise exposure of the parental cells to doxorubicin. […] The residual surviving cells were then allowed to grow in fresh medium. When these residual cells reached 70-80% confluence in the plate, they were treated again with the same concentration of doxorubicin. After this cycle was repeated several times, the concentration of doxorubicin was increased multiple times followed by the regrowth of cells. […] Other agents used in these experiments included gemcitabine (Eli Lilly and Co., Indianapolis, Ind.), vinorelbine (Pierre Fabre, Idron 64320, France), paclitaxel (Bristol-Myers Squibb Co., Princeton, N.J.), irinotecan (Pharmacia & Upjohn Co., Kalamazoo, Mich.), floxuridine (Ben Venue Labs, Inc., Bedford, Ohio), and TRAIL protein (R & D Systems, Minneapolis, Minn.).
Assays. Cell viability, flow cytometry, and Western blot analysis were performed as described in previous examples. See also Gu et al., 2000 and Kagawa et al., 2001. Biochemical analysis, using β-galactosidase was determined as dexcribed in Example 1. For Western analysis anti-caspase-8 (R&D systems, Minneapolis, Minn.), anti-caspase-3 (BD PharMingen, San Diego, Calif.), anti-PARP (BD PharMingen), anti-GFP (Clontech Inc., Palo Alto, Calif.), and anti-hTRAIL (Alexis, San Diego, Calif.) antibodies were used. Apoptosis in tumors was assessed by in situ TUNEL staining as decribed in Example 3.
Statistical Analysis. Differences among the treatment groups were assessed as described in previous examples. Survival was assessed using the Kaplan-Meier method. The drug concentration that inhibited cells growth by 50% (IC50) was calculated by CurveExpert 1.3 software (Starkville, Miss.).

Test [2] deals with 231/ADR. Briefly: IC50 of chemotherapeutic agents and Ad/gTRAIL, doxorubicin-resistant cells. In kind it is cell-based, human. The settings on record: for IC50: Homo sapiens. As to the method:
Cell Lines and Reagents. […] Immortalized nontransformed breast epithelial cell lines MCF10A and MCF10F and normal human mammary epithelial cells (NHMEC) were purchased from Clonetics (San Diego, Calif.). […] Doxorubicin-resistant MDA-MB-231 cells were obtained through the stepwise exposure of the parental cells to doxorubicin. […] The residual surviving cells were then allowed to grow in fresh medium. When these residual cells reached 70-80% confluence in the plate, they were treated again with the same concentration of doxorubicin. After this cycle was repeated several times, the concentration of doxorubicin was increased multiple times followed by the regrowth of cells.
Assays. Cell viability, flow cytometry, and Western blot analysis were performed as described in previous examples. […] For Western analysis anti-caspase-8 (R&D systems, Minneapolis, Minn.), anti-caspase-3 (BD PharMingen, San Diego, Calif.), anti-PARP (BD PharMingen), anti-GFP (Clontech Inc., Palo Alto, Calif.), and anti-hTRAIL (Alexis, San Diego, Calif.) antibodies were used.
Statistical Analysis. Differences among the treatment groups were assessed as described in previous examples. Survival was assessed using the Kaplan-Meier method.

The test system of test [3] is DLD1/TRAIL-R. Briefly: Sensitizing TRAIL-resistant cells to Ad/gTRAIL by chemotherapeutic agents. The note with it: Ad/gTRAIL 1000 viral particles/cell; 96 h.
Procedure: Chemotherapeutic agents concentrations are shown on the bottom of each graph. […] Cell viability was determined at 96 h after treatment. Levels are mean+/−SD of two quadruplet assays. […] Cells were treated with adenovector at 1000 moi (vp), 5-FU 50 μm and 1.25 μm MMC. In combination group, the dose were the same as the single agent group. Cells were harvested at 96 h after treatment and cell lysate was used for Western blot analysis.
Test [4] relates to lung metastasis derived from breast cancer cells 231/ADR. Nature of the test: Lung metastatic tumor model, aerosolized Ad/gTRAIL with paclitaxol. The settings on record: day 35 after starting treatment. In kind it is in vivo, nude mice.
Procedure: The aerosol vector administration are the following: adenovirus of 1×10^12 particles was diluted in PBS to a final volume of Iml and was mixed with 500 μl (5 mg) of protamine. […] The complex was placed into the nebulizer chamber. The aerosol from the nebulizer was passed through a sealed plastic cage that housed the mice. The exposure required approximately 50 minutes, during which time the mice were allowed to move freely about the cage.
In test [5] the test system is H1299 lung cancer cells.
Source text: Construction of Ad/gBax. […] This bicistronic vector as modified combined the two expression cassettes of the Tet-Off system (BD Clontech, San Francisco, Calif., USA) into a single vector (FIG. 28). […] The second cassette contained the cDNA of the GFP/Bax fusion protein under the control of a compound promoter consisting of TRE and the minimal immediate early promoter of CMV. GFP was included to facilitate the selection of recombinant virus and the detection of expression products.
The test system of test [6] is lung. Nature of the test: Reporter gene expression in lung after aerosolized vector. The test is classed as in vivo, mice. The settings on record: protamine 1 mg/ml, hydrocortisone 250 ng/ml. As to the method:
The aerosol vector administration are the following: adenovirus of 1×10^12 particles was diluted in PBS to a final volume of Iml and was mixed with 500 μl (5 mg) of protamine. The Protamine-adenovirus complex was mixed with 5 ml hydrocortisone (concentration of 250 ng/ml in H2O) after incubating 10 min at room temperature. The complex was placed into the nebulizer chamber. The aerosol from the nebulizer was passed through a sealed plastic cage that housed the mice. The exposure required approximately 50 minutes, during which time the mice were allowed to move freely about the cage.
Treatment of lung metastasis by aerosolized vector administration was also tested. […] Subsequent aerosol administration of adenovectors will contain protamine and hydrocortisone in the vector solution.

The test system of test [7] is MDA-MB-231, MDA-MB-468, MDA-MB-453 and MCF7 cells. Nature of the test: Cell viability after recombinant TRAIL protein. In kind it is cell-based, human. As to the method:
Cell Lines and Reagents. Human breast cancer cell lines MCF7, MDA-MB-231, MDA-MB-453, and MDA-MB-468 were grown in RPMI 1640 medium supplemented with 10% heat-inactivated fetal bovine serum, and antibiotics, and glutamine. Immortalized nontransformed breast epithelial cell lines MCF10A and MCF10F and normal human mammary epithelial cells (NHMEC) were purchased from Clonetics (San Diego, Calif.). Primary normal human mammary epithelial cells (PNHMEC) isolated from normal breast tissue (Stampfer and Yaswen, 1994) were provided by Dr. Yinhua Yu (The University of Texas M. D. Anderson Cancer Center). Doxorubicin-resistant MDA-MB-231 cells were obtained through the stepwise exposure of the parental cells to doxorubicin. In brief, the parental MDA-MB-231 cells were treated with doxorubicin (Ben Venue Labs, Inc., Bedford, Ohio) at concentration of 2 μM (1.16 μg/ml, which is the IC80 of MDA-MB-231 cells). Most cells were killed after day 4 of treatment. The residual surviving cells were then allowed to grow in fresh medium. When these residual cells reached 70-80% confluence in the plate, they were treated again with the same concentration of doxorubicin. […]
To test whether these cells were similarly sensitive to soluble TRAIL protein, cells were treated with recombinant TRAIL protein at various concentrations up to 800 ng/ml. Cell viability was then determined at 24, 48, and 96 h after treatment. […]

Setting [8] is: Homo sapiens, MDA-MB-231, read-out: IC50.

The term IC50 denotes the concentration needed to halve the response being measured. One may read the IC80 as the concentration needed for an effect of 80%. On to `COc1cccc2c1C(=O)c1c(O)c3c(c(O)c1C2=O)C[C@@](O)(C(=O)CO)C[C@@H]3O[C@H]1C[C@H](N)[C@H](O)[C@H](C)O1` [Doxorubicin, doxorubicin], for which the IC50 amounted to 1140 nM in test [1] (Homo sapiens, MDA-MB-231) and 97600 nM in test [2]. For the same molecule, in test [1] (Homo sapiens, MDA-MB-231), the IC80 stood at 2000 nM. Moreover, the susceptibility to doxorubicin entry is listed as “susceptible” in test [1] (parental MDA-MB-231, 2 μM) and “resistant” in test [2] (16 μM). Further, the “sensitization of DLD1/TRAIL-R to Ad/gTRAIL (cell viability)” value (shortened to “sensitization of DLD1/TRAIL-R”) in test [3] is on record as “can sensitize DLD1/TRAIL-R to Ad/gTRAIL at certain concentrations”.
With `O=c1[nH]c(=O)n([C@H]2C[C@H](O)[C@@H](CO)O2)cc1F` [Floxuridine, floxuridine], the IC50 was found to be 100 nM in test [1] (Homo sapiens, MDA-MB-231) and 4700 nM in test [2]. In test [3], the “sensitization of DLD1/TRAIL-R” value is listed as “can be sensitized to Ad/gTRAIL”.
Take `Nc1ccn([C@@H]2O[C@H](CO)[C@@H](O)C2(F)F)c(=O)n1` [Gemcitabine, gemcitabine]: the figures for the IC50 in test [1] (setting [8]) and in test [2] were 18.6 nM and 37 nM, respectively.
As to `CCc1c2c(nc3ccc(OC(=O)N4CCC(N5CCCCC5)CC4)cc13)-c1cc3c(c(=O)n1C2)COC(=O)[C@]3(O)CC` [Irinotecan, irinotecan], the IC50 in test [1] (Homo sapiens, MDA-MB-231) came to 1540 nM; in test [2], 5940 nM.
On to `CC(=O)O[C@H]1C(=O)[C@@]2(C)[C@H]([C@H](OC(=O)c3ccccc3)[C@]3(O)C[C@H](OC(=O)[C@H](O)[C@@H](NC(=O)c4ccccc4)c4ccccc4)C(C)=C1C3(C)C)[C@]1(OC(C)=O)CO[C@@H]1C[C@@H]2O` [Paclitexol, paclitaxel], for which the 50% inhibitory concentration (IC50) was determined as 3.46 nM in test [1] (Homo sapiens, MDA-MB-231) and 16.9 nM in test [2]. Moreover, the “numbers of tumor nodules in the lung” value in test [4] is reported as “dramatically reduced the numbers of tumor nodules”.
For `CN(C)[C@@H]1C(O)=C(C(N)=O)C(=O)[C@@]2(O)C(O)=C3C(=O)c4c(O)cccc4[C@@](C)(O)[C@H]3C[C@@H]12` [Tc, tetracycline], the “concentration that started to inhibit GFP-Bax expression” value in test [5] amounted to 1 ng/mL.
Regarding `CCC1=C[C@@H]2CN(C1)Cc1c([nH]c3ccccc13)[C@@](C(=O)OC)(c1cc3c(cc1OC)N(C)[C@H]1[C@@](O)(C(=O)OC)[C@H](OC(C)=O)[C@]4(CC)C=CCN5CC[C@]31[C@@H]54)C2` [Vinorelbine, vinorelbine], the IC50 in test [1] (setting [8]) came to 2.4 nM; in test [2], 22.9 nM.
With `O=c1[nH]cc(F)c(=O)[nH]1` [fluorouracil], in test [3], the “sensitization of DLD1/TRAIL-R” value is listed as “can sensitize DLD1/TRAIL-R to Ad/gTRAIL at certain concentrations”.
For the molecule `C[C@]12CCC(=O)C=C1CC[C@@H]1[C@@H]2[C@@H](O)C[C@@]2(C)[C@H]1CC[C@]2(O)C(=O)CO` [hydrocortisone], in test [6], the “reporter gene LacZ expression in lung” value is “dramatically increased”.
Take `CO[C@@]12[C@H](COC(N)=O)C3=C(C(=O)C(C)=C(N)C3=O)N1C[C@@H]1N[C@@H]12` [mutamycin]: the “sensitization of DLD1/TRAIL-R” value in test [3] was “can sensitize DLD1/TRAIL-R to Ad/gTRAIL at certain concentrations”.
Regarding protamine, in test [6], the “reporter gene LacZ expression in lung” value is reported as “dramatically increased”.

B1: TRAIL protein: recombinant soluble TRAIL protein (R & D Systems) (protein, UniProt P50591 39-281, looked up)
extracellular domain: TNELKQMQDKYSKSGIACFLKEDDSYWDPNDEESMNSPCWQVKWQLRQLVRKMILRTSEETISTVQEKQQNISPLVRERGPQRVAAHITGTRGRSNTLSSPNSKNEKALGRKINSWESSRSGHSFLSNLHLRNGELVIHEKGFYYIYSQTYFRFQEEIKENTKNDKQMVQYIYKYTSYPDPILLMKSARNSCWSKDAEYGLYSIYQGGIFELKENDRIFVSVTNEHLIDMDHEASFFGAFLVG
modifications: extracellular domain recombinant soluble
Regarding B1, the “sensitivity to TRAIL protein (cell viability)” value in test [7] (MDA-MB-231 and MDA-MB-468, up to 800 ng/ml, 24, 48, 96 h) was “sensitive”; in test [7] (MDA-MB-453 and MCF7, 800 ng/ml), “resistant”.
